In general, IC50 refers to the concentration at which inhibition is half-maximal. High values mean weaker potency in that assay, low ones greater potency in that assay.

Structures are written as SMILES. Where “and” joins values, the source holds several entries; their conditions need not be identical. Identical values can stand only once. Square brackets hold non-standard residues; d marks the D form. Peptide text beside a SMILES is read from it. Phe(4-F) = N[C@@H](Cc1ccc(F)cc1)C(=O)O; 1Nal = N[C@@H](Cc1cccc2ccccc12)C(=O)O; Arg(Me) = CNC(=N)NCCC[C@H](N)C(=O)O; azaGly = NNC(=O)O

These results are taken from patent publication US8361968B2 (Takeda Pharmaceutical Company Limited, priority 2002, dated 2013).

The target of experiment [1] is T1, hOT7T175 (Homo sapiens, UniProt Q969F8, L364H). The experiment in a line: hOT7T175 receptor binding activity: binding inhibition of Cy-5-labeled metastin (40-54) on hOT7T175-expressed CHO cells. Details: expressed in transfected cells; host or cells: CHO cells. As to the method: Assay for hOT7T175 Receptor Binding Activity
T1 sequence (Q969F8 whole entry L364H): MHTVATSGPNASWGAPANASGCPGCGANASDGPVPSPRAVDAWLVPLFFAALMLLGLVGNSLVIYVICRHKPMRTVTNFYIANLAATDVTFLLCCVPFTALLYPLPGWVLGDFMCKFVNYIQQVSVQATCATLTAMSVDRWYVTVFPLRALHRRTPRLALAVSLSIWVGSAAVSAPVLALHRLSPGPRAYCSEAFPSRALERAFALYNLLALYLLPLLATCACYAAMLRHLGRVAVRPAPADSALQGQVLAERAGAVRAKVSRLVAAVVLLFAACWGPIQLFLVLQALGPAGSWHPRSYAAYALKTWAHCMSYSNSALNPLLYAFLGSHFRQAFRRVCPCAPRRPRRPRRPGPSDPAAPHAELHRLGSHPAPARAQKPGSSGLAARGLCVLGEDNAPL
h0T7T175-Expressed CHO cells were cultured in MEM-cc medium (nucleic acid-free) containing 10% dialyzed serum. The medium was removed and the adherent cells were washed with PBS. Then, PBS containing 5 mM EDTA was added and the cells were scraped from a flask with a cell scraper. […] To each well of a 96-Well Black Clear Bottom Plate (Applied Biosystems, Inc.), 10 μL of assay buffer containing 1% dimethylsulfoxide was added to examine total binding, 10 μL of 10 μM non-labeled peptide (having the same amino acid sequence as that of the labeled one) solution diluted with assay buffer to examine non-specific binding, and 10 μL of a test compound diluted with assay buffer to examine the binding inhibition activity of the test compound, respectively. Furthermore, 90 μL each of the cell suspension was dispensed to each well. […] The specific binding is a value obtained by subtracting the non-specific binding from the total binding.

For experiment [2], the target named is T1, hOT7T175. The experiment in a line: Intracellular Ca ion level-increasing activity using FLIPR in hOT7T175/CHO. It counts as cell-based. Also noted: expressed in transfected cells; host or cells: CHO/dhfr- cells, obtained from ATCC. The note with it: relative, Metastin (1-54) = 1.

`CCCC[C@H](NC(=O)CNC(=O)[C@H](Cc1ccccc1)NC(=O)[C@H](CO)NC(=O)[C@H](CC(N)=O)NC(=O)[C@H](Cc1c[nH]c2ccccc12)NC(=O)[C@H](CC(N)=O)NC(=O)[C@@H](N)Cc1ccc(O)cc1)C(=O)N[C@@H](CCCNC(=N)N)C(=O)N[C@@H](Cc1ccccc1)C(N)=O` [Compound No. 105, Tyr-Asn-Trp-Asn-Ser-Phe-Gly-Nle-Arg-Phe-NH2] came in with an IC50 at hOT7T175 [1] of 880 nM. The “Specific Activity (intracellular Ca ion level-increasing activity)” value at hOT7T175 [2] was 1.

Consider `CC(C)C[C@H](NC(=O)CNC(=O)[C@H](Cc1ccccc1)NC(=O)[C@H](CO)NC(=O)[C@H](CC(N)=O)NC(=O)[C@H](Cc1c[nH]c2ccccc12)NC(=O)[C@H](CC(N)=O)NC(=O)[C@@H](N)Cc1ccc(O)cc1)C(=O)N[C@@H](CCCCNC(=N)N)C(=O)N[C@@H](Cc1ccccc1)C(N)=O` [Compound No. 97], for which, on hOT7T175 [1], the IC50 came to 370 nM. The “Specific Activity (intracellular Ca ion level-increasing activity)” value at hOT7T175 [2] came to 10.

At hOT7T175 [1], `CNC(=N)NCCC[C@H](NC(=O)[C@H](CC(C)C)NC(=O)NNC(=O)[C@H](Cc1ccccc1)NC(=O)[C@H](CO)NC(=O)[C@H](CC(N)=O)NC(=O)[C@@H](NC(=O)[C@@H](CC(N)=O)NC(=O)[C@H](N)Cc1ccc(O)cc1)[C@@H](C)O)C(=O)N[C@@H](Cc1ccc(F)cc1)C(N)=O` [Compound No. 316, D-Tyr-D-Asn-Thr-Asn-Ser-Phe-AzaGly-Leu-Arg(Me)-Phe(4F)-NH2] (H-[dY][dN]TNSF[azaGly]L[Arg(Me)][Phe(4-F)]-NH2) displayed an IC50 of 26 nM. The “Specific Activity (intracellular Ca ion level-increasing activity)” value at hOT7T175 [2] is reported as 1.

The compound `CC(C)C[C@H](NC(=O)CNC(=O)[C@H](Cc1ccccc1)NC(=O)[C@H](CO)NC(=O)[C@H](CC(N)=O)NC(=O)[C@H](Cc1c[nH]c2ccccc12)NC(=O)[C@H](CC(N)=O)NC(=O)[C@@H](N)Cc1ccc(O)cc1)C(=O)N[C@@H](CCCNC(=N)N)C(=O)N[C@@H](Cc1cccc(C(F)(F)F)c1)C(N)=O` [Compound No. 200] yielded an IC50 on hOT7T175 [1] of 340 nM. For the same compound, the “Specific Activity (intracellular Ca ion level-increasing activity)” value on hOT7T175 [2] came out at 10.

`CNC(=N)NCCC[C@H](NC(=O)[C@H](CC(C)C)NC(=O)CNC(=O)[C@H](Cc1ccccc1)NC(=O)[C@H](CO)NC(=O)[C@H](CC(N)=O)NC(=O)[C@@H](Cc1c[nH]c2ccccc12)NC(=O)[C@H](N)Cc1ccc(O)cc1)C(=O)N[C@@H](Cc1ccccc1)C(N)=O` [Compound No. 224, D-Tyr-D-Trp-Asn-Ser-Phe-Gly-Leu-Arg(Me)-Phe-NH2] (H-[dY][dW]NSFGL[Arg(Me)]F-NH2) showed an IC50 on hOT7T175 [1] of 140 nM. The “Specific Activity (intracellular Ca ion level-increasing activity)” value on hOT7T175 [2] was 2 and 1.

For `CC(C)C[C@H](NC(=O)CNC(=O)[C@H](Cc1cccc2ccccc12)NC(=O)[C@H](CO)NC(=O)[C@H](CC(N)=O)NC(=O)[C@H](Cc1c[nH]c2ccccc12)NC(=O)[C@H](CC(N)=O)NC(=O)[C@@H](N)Cc1ccc(O)cc1)C(=O)N[C@@H](CCCNC(=N)N)C(=O)N[C@@H](Cc1ccccc1)C(N)=O` [Compound No. 151, Tyr-Asn-Trp-Asn-Ser-Nal(1)-Gly-Leu-Arg-Phe-NH2] (H-YNWNS[1Nal]GLRF-NH2; N-terminus assumed), the concentration for half-maximal inhibition (IC50) at hOT7T175 [1] worked out at 300 nM. Moreover, the “Specific Activity (intracellular Ca ion level-increasing activity)” value at hOT7T175 [2] was 1.

Turning to `CC(C)C[C@H](NC(=O)CNC(=O)[C@H](Cc1ccccc1)NC(=O)[C@H](CO)NC(=O)[C@H](CC(N)=O)NC(=O)[C@H](Cc1c[nH]c2ccccc12)NC(=O)[C@H](CC(N)=O)NC(=O)[C@@H](N)Cc1ccc(O)cc1)C(=O)N[C@@H](CCCNC(=N)N)C(=O)N[C@@H](Cc1ccc(O)cc1)C(N)=O` [Compound No. 109] (H-YNWNSFGLRY-NH2), the half-inhibitory concentration (IC50) at hOT7T175 [1] came to 23 nM. Further, the “Specific Activity (intracellular Ca ion level-increasing activity)” value on hOT7T175 [2] worked out at 20.
